Columns and labels:
[1] = molecular target: T1, Phosphorylase b kinase gamma catalytic chain, liver/testis isoform (Homo sapiens) (UniProt P15735); assay: Selectivity interaction (KinomeScan (DiscoverX)) EUB0000607a PHKG2; conditions: at 10 µM
T1 sequence (whole entry): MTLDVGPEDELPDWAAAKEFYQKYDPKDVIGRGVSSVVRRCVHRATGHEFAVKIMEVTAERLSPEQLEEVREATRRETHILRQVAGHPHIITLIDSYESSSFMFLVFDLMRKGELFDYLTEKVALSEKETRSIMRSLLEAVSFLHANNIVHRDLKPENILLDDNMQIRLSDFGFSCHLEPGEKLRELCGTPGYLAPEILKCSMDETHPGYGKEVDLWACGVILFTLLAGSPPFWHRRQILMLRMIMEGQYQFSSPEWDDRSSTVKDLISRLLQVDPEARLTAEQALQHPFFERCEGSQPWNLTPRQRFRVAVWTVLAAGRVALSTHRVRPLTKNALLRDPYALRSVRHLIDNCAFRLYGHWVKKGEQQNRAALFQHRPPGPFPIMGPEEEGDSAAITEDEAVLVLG

[2] = molecular target: T2, NUAK family SNF1-like kinase 2 (Homo sapiens) (UniProt Q9H093); assay: Selectivity interaction (KinomeScan (DiscoverX)) EUB0001079a NUAK2; conditions: at 1 µM
T2 sequence (whole entry): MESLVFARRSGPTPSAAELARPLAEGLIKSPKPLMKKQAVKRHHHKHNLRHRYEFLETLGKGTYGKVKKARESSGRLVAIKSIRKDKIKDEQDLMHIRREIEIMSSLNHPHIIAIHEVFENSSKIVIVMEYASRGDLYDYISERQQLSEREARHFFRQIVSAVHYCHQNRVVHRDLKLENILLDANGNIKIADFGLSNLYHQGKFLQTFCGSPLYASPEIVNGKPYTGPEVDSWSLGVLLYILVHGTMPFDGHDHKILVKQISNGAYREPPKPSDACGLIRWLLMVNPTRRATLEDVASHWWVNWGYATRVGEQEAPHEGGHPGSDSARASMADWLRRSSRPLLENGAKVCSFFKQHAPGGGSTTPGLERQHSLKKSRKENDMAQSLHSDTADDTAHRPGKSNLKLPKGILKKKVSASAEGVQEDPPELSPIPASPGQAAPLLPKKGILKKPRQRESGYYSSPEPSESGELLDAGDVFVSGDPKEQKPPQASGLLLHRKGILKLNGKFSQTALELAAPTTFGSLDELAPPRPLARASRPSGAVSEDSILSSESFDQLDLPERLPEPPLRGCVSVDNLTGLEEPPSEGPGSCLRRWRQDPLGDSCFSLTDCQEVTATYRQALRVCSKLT

[3] = molecular target: T3, Serine/threonine-protein kinase D3 (Homo sapiens) (UniProt O94806); assay: Selectivity interaction (KinomeScan (DiscoverX)) EUB0000092b PRKD3; conditions: at 10 µM
T3 sequence (whole entry): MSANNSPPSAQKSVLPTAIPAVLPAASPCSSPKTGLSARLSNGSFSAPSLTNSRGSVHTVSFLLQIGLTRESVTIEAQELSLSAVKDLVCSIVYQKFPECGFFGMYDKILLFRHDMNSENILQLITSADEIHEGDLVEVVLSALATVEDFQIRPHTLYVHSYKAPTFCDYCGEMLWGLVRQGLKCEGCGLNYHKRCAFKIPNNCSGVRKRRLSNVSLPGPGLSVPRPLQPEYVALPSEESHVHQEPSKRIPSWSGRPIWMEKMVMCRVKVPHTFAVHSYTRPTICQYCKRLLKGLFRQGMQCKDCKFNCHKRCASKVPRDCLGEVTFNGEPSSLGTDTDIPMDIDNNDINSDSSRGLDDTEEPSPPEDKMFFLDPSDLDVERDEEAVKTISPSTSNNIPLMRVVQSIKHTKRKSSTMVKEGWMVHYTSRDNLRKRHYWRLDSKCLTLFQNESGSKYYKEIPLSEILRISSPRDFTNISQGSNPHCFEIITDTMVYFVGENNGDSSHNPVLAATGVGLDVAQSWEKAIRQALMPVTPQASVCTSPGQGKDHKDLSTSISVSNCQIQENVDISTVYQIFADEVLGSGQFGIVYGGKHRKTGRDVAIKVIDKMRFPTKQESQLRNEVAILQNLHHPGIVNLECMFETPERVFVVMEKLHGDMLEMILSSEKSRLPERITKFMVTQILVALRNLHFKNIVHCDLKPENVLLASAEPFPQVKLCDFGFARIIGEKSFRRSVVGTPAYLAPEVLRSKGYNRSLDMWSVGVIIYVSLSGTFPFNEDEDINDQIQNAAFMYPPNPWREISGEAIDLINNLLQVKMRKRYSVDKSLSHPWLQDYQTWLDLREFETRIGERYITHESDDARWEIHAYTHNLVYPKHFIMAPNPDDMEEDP

CNC(=O)Nc1ccc(-c2nc(N3CC4CCC(C3)O4)c3cnn(C4CCC5(CC4)OCCO5)c3n2)cc1
% of control [1]: 96%

Nc1cnc(N2CCc3cc(S(=O)(=O)Nc4c(F)cc(Cl)cc4F)cc(N4CCCC4=O)c32)nc1 [TP-020n]
% of control [2]: 100%

CCC(=O)N1CCN(c2ccc(-n3c(=O)ccc4cnc5ccc(-c6cnc7ccccc7c6)cc5c43)cc2C(F)(F)F)CC1
% of control [3]: 100%

From ChEMBL document CHEMBL5465560, “Selectivity Literature for EUbOPEN Chemogenomic Library” (2024)
